Measurements from the supplement of paper PMC10307832.

Tests used:
Assay in all cases: relative viability (nuclei count vs DMSO), 5 days (fraction); higher = more cells survive
XMD14-99 + Bortezomib = compound: CN1CCN(CC1)C2=CC(=C(C=C2)NC3=NC(=C(S3)C(=O)C4=C(C=CC=C4Cl)Cl)N)OC [XMD14-99] + CC(C)C[C@H](NC(=O)[C@H](Cc1ccccc1)NC(=O)c1cnccn1)B(O)O [Bortezomib] (partner 0.002 µM)
In short: (§1)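 A single step with final 0.05% Triton X-100, 1% formaldehyde and 1 ug/ml Hoechst fixed the cells and stained nuclei 5 days after treatment. Lung cancer cell lines in 1536-well plates had been treated by pin tool the day after seeding with one drug alone or a fixed anchor-drug dose plus five library-drug doses (not always all listed) in √10 steps, and nuclei were counted on 4× images. Relative viability is the ratio of nuclei in treated wells to nuclei in vehicle wells, taken as the median of duplicate plates.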

XMD14-99 + Olaparib = compound: CN1CCN(CC1)C2=CC(=C(C=C2)NC3=NC(=C(S3)C(=O)C4=C(C=CC=C4Cl)Cl)N)OC [XMD14-99] + O=C(c1cc(Cc2n[nH]c(=O)c3ccccc23)ccc1F)N1CCN(C(=O)C2CC2)CC1 [Olaparib] (partner 8 µM)
In short: as §1

AZD1208 + Dasatinib = compound: N[C@@H]1CCCN(c2c(/C=C3\SC(=O)NC3=O)cccc2-c2ccccc2)C1 [AZD1208] + Cc1nc(Nc2ncc(C(=O)Nc3c(C)cccc3Cl)s2)cc(N2CCN(CCO)CC2)n1 [Dasatinib] (partner 0.075 µM)
In short: as §1

XMD14-99 + Pictilisib = compound: CN1CCN(CC1)C2=CC(=C(C=C2)NC3=NC(=C(S3)C(=O)C4=C(C=CC=C4Cl)Cl)N)OC [XMD14-99] + CS(=O)(=O)N1CCN(Cc2cc3nc(-c4cccc5[nH]ncc45)nc(N4CCOCC4)c3s2)CC1 [Pictilisib] (partner 1 µM)
In short: as §1

| Cell Line | relative viability (XMD14-99 + Bortezomib; first compound 0.08 µM) | relative viability (XMD14-99 + Bortezomib; first compound 0.8 µM) | relative viability (XMD14-99 + Bortezomib; first compound 2.53 µM) | relative viability (XMD14-99 + Bortezomib; first compound 8 µM) | relative viability (XMD14-99 + Olaparib; first compound 0.08 µM) | relative viability (XMD14-99 + Olaparib; first compound 0.8 µM) | relative viability (XMD14-99 + Olaparib; first compound 2.53 µM) | relative viability (XMD14-99 + Olaparib; first compound 8 µM) | relative viability (AZD1208 + Dasatinib; first compound 0.08 µM) | relative viability (AZD1208 + Dasatinib; first compound 0.253 µM) | relative viability (AZD1208 + Dasatinib; first compound 0.8 µM) | relative viability (AZD1208 + Dasatinib; first compound 2.53 µM) | relative viability (AZD1208 + Dasatinib; first compound 8 µM) | relative viability (XMD14-99 + Pictilisib; first compound 0.08 µM) | relative viability (XMD14-99 + Pictilisib; first compound 0.8 µM) | relative viability (XMD14-99 + Pictilisib; first compound 2.53 µM) | relative viability (XMD14-99 + Pictilisib; first compound 8 µM) |
| --- | --- | --- | --- | --- | --- | --- | --- | --- | --- | --- | --- | --- | --- | --- | --- | --- | --- |
| HCC-827 | 1.12 | 0.994 | 0.976 | 0.802 | 0.596 | 0.632 | 0.622 | 0.491 | 0.286 | 0.297 | 0.263 | 0.255 | 0.247 | 1.1 | 0.895 | 0.917 | 0.998 |
| HOP-62 | 0.604 | 0.694 | 0.863 | 0.605 | 0.536 | 0.634 | 0.501 | 0.312 | 0.679 | 0.712 | 0.541 | 0.572 | 0.647 | 0.917 | 0.842 | 0.808 | 0.646 |
| IA-LM | 0.783 | 0.79 | 0.47 | 0.394 | 0.943 | 0.691 | 0.68 | 0.352 | – | – | – | – | – | 0.34 | 0.256 | 0.157 | 0.191 |
| LC-2-ad | 0.993 | 0.978 | 1 | 0.732 | 0.687 | 0.707 | 0.628 | 0.498 | 0.525 | 0.464 | 0.465 | 0.51 | 0.459 | 0.488 | 0.439 | 0.49 | 0.32 |
| LCLC-97TM1 | 0.801 | 0.629 | 0.625 | 0.33 | 0.415 | 0.351 | 0.35 | 0.209 | 0.88 | 0.827 | 0.82 | 0.631 | 0.891 | 0.165 | 0.217 | 0.17 | 0.172 |
| LCLC-103H | 0.991 | 1.08 | 1.07 | 0.995 | 0.764 | 0.779 | 0.752 | 0.657 | 0.448 | 0.501 | 0.421 | 0.448 | 0.33 | 0.58 | 0.731 | 0.558 | 0.454 |
| LK-2 | – | – | – | – | 0.751 | 0.591 | 0.685 | 0.419 | 0.273 | 0.224 | 0.17 | 0.167 | 0.178 | 0.592 | 0.506 | 0.517 | 0.465 |
| LOU-NH91 | 0.498 | 0.416 | 0.451 | 0.447 | 0.904 | 0.919 | 0.891 | 0.692 | 0.57 | 0.551 | 0.496 | 0.496 | 0.491 | 0.586 | 0.614 | 0.516 | 0.545 |
| LU99A | 1.17 | 1.06 | 1.11 | 0.956 | 0.304 | 0.263 | 0.19 | 0.135 | 0.451 | 0.556 | 0.363 | 0.572 | 0.389 | 0.257 | 0.304 | 0.267 | 0.262 |
| LXF-289 | 1.04 | 0.978 | 0.945 | 0.841 | 1.06 | 1.01 | 1.11 | 0.931 | 0.227 | 0.175 | 0.195 | 0.181 | 0.15 | 0.699 | 0.824 | 0.753 | 0.597 |
